According to patent US4732970A, “Antitumor amino acid and peptide derivatives of 1,4-bis(aminoalkyl and hydroxy-aminoalkyl)amino)-5,8-dihydroxyanthraquinones” (priority 1986, dated 1988):

Tested on: lymphocytic leukemia P388
Test: Lymphocytic Leukemia P388 Test
Assay type: in vivo, BDF1 mice
Settings: for Median Survival: BDF1 mice; for T/C × 100 (%): ratio of survival time treated/control
Experimental: The animals used were BDF1 mice, all of one sex, weighing a minimum of 18 g and all within a 3 g weight range. There were 5 or 6 mice per test group. The tumor transplant was by intraperitoneal injection of 0.5 ml of dilute ascitic fluid containing 10^6 cells of lymphocytic leukemia P388. The test compounds were administered intraperitoneally on days 1, 5 and 9 (relative to tumor inocu-lation) at various doses. The animals were weighed and survivors recorded on a regular basis for 60 days. The median survival time and the ratio of survival time for treated (T)/control (C) animals were calculated.

[1] = dose 0.75 mg/kg intraperitoneally on days 1, 5 and 9
[2] = dose 1.5 mg/kg intraperitoneally on days 1, 5 and 9
[3] = dose 3 mg/kg intraperitoneally on days 1, 5 and 9

SMILES | Median Survival [1] [days] | T/C × 100 (%) [1] [%] | Median Survival [2] [days] | T/C × 100 (%) [2] [%] | Median Survival [3] [days] | T/C × 100 (%) [3] [%]
CC(C)(C)OC(=O)N[C@@H](CO)C(=O)NCCNc1ccc(NCCNC(=O)[C@H](CO)NC(=O)OC(C)(C)C)c2c1C(=O)c1c(O)ccc(O)c1C2=O (relative stereo) [Example 14, [S-(R*,R*)]-N,N'-[(9,10-Dihydro-5,8-dihydroxy-9,10-dioxo-1,4-anthracenediyl)bis[imino-2,1-ethanediylimino-[1-(hydroxymethyl)-2-oxo-2,1-ethanediyl]]]bis-carbamic acid, bis(1,1-dimethylethyl)ester] | 13.5 | 123 | 16.0 | 145 | 17.5 | 159
Cl.Cl.N[C@@H](Cc1ccccc1)C(=O)NCCNc1ccc(NCCNC(=O)[C@@H](N)Cc2ccccc2)c2c1C(=O)c1c(O)ccc(O)c1C2=O (relative stereo) [Example 17, [S-(R*,R*)]-N,N'-[(9,10-Dihydro-5,8-dihydroxy-9,10-dioxo-1,4-anthracenediyl)bis(imino-2,1-ethanediyl)]bis[2-aminobenzenepropanamide], dihydrochloride] | 22.5 | 188 | 23.0 | 192 | 19.5 | 163
CC[C@H](C)[C@H](N)C(=O)NCCNc1ccc(NCCNC(=O)[C@@H](N)[C@@H](C)CC)c2c1C(=O)c1c(O)ccc(O)c1C2=O.Cl.Cl (relative stereo) [Example 21, [S-(R*,R*,R*,R*)]-N,N'-[(9,10-Dihydro-5,8-dihydroxy-9,10-dioxo-1,4-anthracenediyl)bis(imino-2,1-ethanediyl)]bis-[2-amino-3-methylpentanamide], dihydrochloride] | 18.5 | 185 | 18.0 | 180 | 22.5 | 225
CSCC[C@H](N)C(=O)NCCNc1ccc(NCCNC(=O)[C@@H](N)CCSC)c2c1C(=O)c1c(O)ccc(O)c1C2=O.Cl.Cl (relative stereo) [Example 22, [S-(R*,R*)]N,N'(9,10-Dihydro-5,8-dihydroxy-9,10-dioxo-1,4-anthracenediyl)bis(imino-2,1-ethanediyl)]-bis[2-amino-4-(methylthio)butanamide], dihydrochloride] | 17.0 | 170 | 20.5 | 205 | 25.5 | 255
CC(C)[C@H](N)C(=O)NCCNc1ccc(NCCNC(=O)[C@@H](N)C(C)C)c2c1C(=O)c1c(O)ccc(O)c1C2=O.Cl.Cl (relative stereo) [Example 24, [S-(R*,R*)]-N,N'-[(9,10-Dihydro-5,8-dihydroxy-9,10-dioxo-1,4-anthracenediyl)bis(imino-2,1-ethanediyl)]bis-[2-Amino-3-methylbutanamide], dihydrochloride] | 18.5 | 185 | 20.0 | 200 | 20.0 | 200
CC(C)C[C@@H](N)C(=O)N(CCO)CCNc1ccc(NCCN(CCO)C(=O)[C@H](N)CC(C)C)c2c1C(=O)c1c(O)ccc(O)c1C2=O.O=C(O)C(F)(F)F.O=C(O)C(F)(F)F.O=C(O)C(F)(F)F (relative stereo) [Example 29, [R-(R*,R*)]-N,N'-[(9,10-Dihydro-5,8-dihydroxy-9,10-dioxo-1,4-anthracenediyl)bis(imino-2,1-ethanediyl)]bis-[2-amino-N-(2-hydroxyethyl)-4-methylpentanamide]tris(trifluoroacetate)] | 12.0 | 109 | 13.0 | 118 | 15.5 | 141
Br.Br.N[C@@H](CS)C(=O)NCCNc1ccc(NCCNC(=O)[C@@H](N)CS)c2c1C(=O)c1c(O)ccc(O)c1C2=O (relative stereo) [Example 35, R-(R*,R*)]-N,N'-[(9,10-Dihydro-5,8-dihydroxy-9,10-dioxo-1,4-anthracenediyl)bis(imino-2,1-ethanediyl)]bis[2-amino-3-mercaptopropanamide], dihydrobromide] | 21.0 | 210 | 23.0 | 230 | 24.5 | 245
N[C@@H](CO)C(=O)NCCNc1ccc(NCCNC(=O)[C@@H](N)CO)c2c1C(=O)c1c(O)ccc(O)c1C2=O.O=C(O)C(F)(F)F.O=C(O)C(F)(F)F (relative stereo) [Example 36, [S-(R*,R*)]-N,N'-(9,10-Dihydro-5,8-dihydroxy-9,10-dioxo-1,4-anthracenediyl)bis(imino-2,1-ethanediyl)]bis[2-amino-3-hydroxyropanamide]bis(trifluoroacetate)] | 19.0 | 173 | 19.0 | 173 | 23.5 | 214
Cl.Cl.N[C@@H](Cc1ccc(O)cc1)C(=O)NCCNc1ccc(NCCNC(=O)[C@@H](N)Cc2ccc(O)cc2)c2c1C(=O)c1c(O)ccc(O)c1C2=O (relative stereo) [Example 37, [S-(R*,R*)]-N,N'-[(9,10-Dihydro-5,8-dihydroxy-9,10-dioxo-1,4anthracenediyl)bis(imino-2,1-ethanediyl)]bis-[2,-amino-3-(4-hydroxyphenyl)-propanamide, dihydrochloride] | 25.0 | 227 | 23.5 | 214 | 23.5 | 214
CC(C)(C)OC(=O)C[C@H](NC(=O)OCC1c2ccccc2-c2ccccc21)C(=O)NCCNc1ccc(NCCNC(=O)[C@H](CC(=O)OC(C)(C)C)NC(=O)OCC2c3ccccc3-c3ccccc32)c2c1C(=O)c1c(O)ccc(O)c1C2=O (relative stereo) [Example 38, [S-R*,R*)]-4,4'-[(9,10-Dihydro-5,8-dihydroxy-D9,10-dioxo-1,4-anthracenediyl)bis(imino-2,1-ethanediylimino)]bis[3-[[9H-fluoren-9-ylmethoxycarbonyl]amino]-4-oxobut anoic acid],bis(1,1-dimethyl)ester] | 13.0 | 108 | 15.0 | 125 | 16.0 | 133
CC(C)(C)OC(=O)C[C@H](N)C(=O)NCCNc1ccc(NCCNC(=O)[C@@H](N)CC(=O)OC(C)(C)C)c2c1C(=O)c1c(O)ccc(O)c1C2=O (relative stereo) [Example 39, [S-(R*,R*)]-4,4'-[(9,10-Dihydro-5,8-dihydroxy-9,10-dioxo-1,4-anthracenediyl)bis(imino-2,1-ethanediylimino)]bis[3-amino-4-oxobutanoic acid]bis(1,1-dimethylethyl)ester] | 21.5 | 179 | 19.5 | 163 | 19.0 | 158
N[C@@H](CC(=O)O)C(=O)NCCNc1ccc(NCCNC(=O)[C@@H](N)CC(=O)O)c2c1C(=O)c1c(O)ccc(O)c1C2=O.O=C(O)C(F)(F)F.O=C(O)C(F)(F)F (relative stereo) [Example 40, S-(R*,R*)]-4,4'-[(9,10-Dihydro-5,8-dihydroxy-9,10-dioxo-1,4-anthracenediyl)bis(imino-2,1-ethanediylimino)]bis[3amino-4-oxobutanoic acid]bis(trifluoroacetate)] | 23.0 | 192 | 19.5 | 163 | 23.0 | 192
CC(C)(C)OC(=O)N[C@@H](COCc1ccccc1)C(=O)NCCNc1ccc(NCCNC(=O)[C@H](COCc2ccccc2)NC(=O)OC(C)(C)C)c2c1C(=O)c1c(O)ccc(O)c1C2=O (relative stereo) [Example 41, S-(R*,R*)]-N,N'-[(9,10-Dihydro-5,8-dihydroxy-9,10-dioxo-1,4-anthracenediyl)bis[imino-2,1-ethanediylimino-[2-oxo-1-[(phenylmethoxy)methyl]-2,1-ethanediyl]]]biscarbamic acid, bis(1,1-dimethylethyl)ester] | 12.0 | 120 | 13.5 | 135 | 15.5 | 155
N[C@@H](COCc1ccccc1)C(=O)NCCNc1ccc(NCCNC(=O)[C@@H](N)COCc2ccccc2)c2c1C(=O)c1c(O)ccc(O)c1C2=O.O=C(O)C(F)(F)F.O=C(O)C(F)(F)F (relative stereo) [Example 42, [S-(R*,R*)]-N,N'-[(9,10-Dihydro-5,8-dihydroxy-9,10-dioxo-1,4-anthracenediyl)bis[imino-2,1-ethanediyl)]bis[2-amino-3-(phenylmethoxy)-propanamide]bis(trifluoroacetate)] | 19.5 | 195 | 21.5 | 215 | 19.5 | 195
